Measured values reported in PMC8948676, “Dihydropyridines Potentiate ATP-Induced Currents Mediated by the Full-Length Human P2X5 Receptor” (Molecules, 2022).

What was measured:
[1] = target: T1, full-length human P2X5 receptor (hP2X5^FL) (Homo sapiens, UniProt Q93086, F216L/F232L); test: cell-based; design: gene P2RX5
[2] = target: T1, full-length human P2X5 receptor (hP2X5^FL); test: two-microelectrode voltage clamp, Xenopus laevis oocytes (agonist concentration-response); type: cell-based; design: gene P2RX5; His-hP2X5^FL, full-length 444 residues including exon 10 (residues 328–349), N-terminal hexahistidine tag; homotrimer
[3] = target: T1, full-length human P2X5 receptor (hP2X5^FL); test: two-microelectrode voltage clamp, Xenopus laevis oocytes; potentiation of ATP-induced current at […]; type: cell-based; design: gene P2RX5; His-hP2X5^FL, full-length 444 residues including exon 10 (residues 328–349), N-terminal hexahistidine tag; homotrimer

T1 sequence (Q93086 whole entry F216L/F232L, the tested form may be a part): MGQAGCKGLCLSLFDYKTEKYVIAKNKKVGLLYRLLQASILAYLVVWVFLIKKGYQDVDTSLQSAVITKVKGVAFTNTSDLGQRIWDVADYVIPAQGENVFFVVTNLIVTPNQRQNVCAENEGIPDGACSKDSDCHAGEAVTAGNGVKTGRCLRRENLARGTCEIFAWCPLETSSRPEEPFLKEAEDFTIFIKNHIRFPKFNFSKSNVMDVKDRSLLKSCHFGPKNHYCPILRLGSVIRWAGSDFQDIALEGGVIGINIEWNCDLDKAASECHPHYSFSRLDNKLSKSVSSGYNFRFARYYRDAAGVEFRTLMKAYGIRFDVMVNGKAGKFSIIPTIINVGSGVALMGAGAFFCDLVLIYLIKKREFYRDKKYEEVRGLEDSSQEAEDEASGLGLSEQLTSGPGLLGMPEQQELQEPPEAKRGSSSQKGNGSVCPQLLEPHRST

## Nc1ncnc2c1ncn2[C@@H]1O[C@H](COP(=O)(O)OP(=O)(O)OP(=O)(O)O)[C@@H](O)[C@H]1O [ATP]
[1]
  EC50: ~39 µM

## Nc1ncnc2c1ncn2[C@@H]1O[C@H](COP(=O)(O)OP(=O)(O)OP(=O)(O)O)[C@@H](OC(=O)c2ccc(C(=O)c3ccccc3)cc2)[C@H]1O [BzATP]
[2]
  two-microelectrode voltage clamp, Xenopus laevis oocytes (agonist concentration-: BzATP, displayed a higher affinity for hP2X5^FL than ATP but a lower efficacy

## COC(=O)C1=C(C)NC(C)=C(C(=O)OC(C)C)C1c1cccc2nonc12 (stereo not drawn) [isradipine]
[3]
  two-microelectrode voltage clamp, Xenopus laevis oocytes; potentiation of ATP-in: In contrast, isradipine and nimodipine stimulated the ATP-induced currents.
